Source: patent US10918653B2, “Bovine milk oligosaccharides” (The Regents of the University of California, priority 2010, dated 2021)

Experiments:
Listeria monocytognes = assay: Growth on MacConkey agar plates (lactose or BMO); format: cell-based, Listeria monocytogenes; conditions: sugar in MacConkey medium; BMO 2 g per 100 ml; strain 8
Description: (§1) FIGS. 3A-3B illustrate growth of select pathogens on BMO. […] The Lac operon permease can transport BMO trimers and tetramers. […] BMOs were suspended at 1 gr/10 mL of sterile water, 10 N NaOH was added until the pH was 7. The BMO solution was used in a MacConkey medium to generate agar plates.

Vibrio cholerae = format: cell-based; conditions: sugar in MacConkey medium; BMO 2 g per 100 ml; strains 10, 11
Yersinia enterocolitica = assay: Growth on MacConkey agar plates (lactose or BMO); format: cell-based; conditions: sugar in MacConkey medium; BMO 2 g per 100 ml; strain 9
Description: as §1

E. coli K12 = assay: Growth on MacConkey agar plates (lactose or BMO); format: cell-based; conditions: sugar in MacConkey medium; BMO 2 g per 100 ml; strain 1
Description: as §1

[1] = tested on: E. coli K12 (DH5alpha, lac minus); assay: Growth on MacConkey agar plates (lactose or BMO); format: cell-based; conditions: sugar in MacConkey medium; BMO 2 g per 100 ml; strain 2
Description: as §1

[2] = tested on: Salmonella typhimurium+lac operon; assay: Growth on MacConkey agar plates (lactose or BMO); format: cell-based; conditions: sugar in MacConkey medium; BMO 2 g per 100 ml; strain 5
Description: as §1

E. coli O157:H7 = format: cell-based; conditions: sugar in MacConkey medium; BMO 2 g per 100 ml; strain 3
Salmonella typhimurium = format: cell-based, Salmonella enterica seovar Typhimurium; conditions: sugar in MacConkey medium; BMO 2 g per 100 ml; strains 4, 6, 7

## OC[C@H]1O[C@@H](O[C@H]2[C@H](O)[C@@H](O)C(O)O[C@@H]2CO)[C@H](O)[C@@H](O)[C@H]1O (some centres unmarked) [Lactose]
Listeria monocytognes
  growth on MacConkey agar plate: negative
Vibrio cholerae
  growth on MacConkey agar plate: negative
Yersinia enterocolitica
  growth on MacConkey agar plate: negative
E. coli K12
  growth on MacConkey agar plate (red strikes): growth observed
[1]
  growth on MacConkey agar plate: negative
[2]
  growth on MacConkey agar plate (red strikes): growth observed
E. coli O157:H7
  growth on MacConkey agar plate (red strikes): growth observed
Salmonella typhimurium
  growth on MacConkey agar plate: negative
